Where “and” joins values, the source holds several entries; their conditions need not be identical. Identical values can stand only once. Toxic doses and inconclusive results are not listed. Cut-off read from the data, not from the text of the source: active = T/C of 150% or more; inactive = T/C below 125%.
Test system: L1210 leukemia ip in BDF1 mice, survival T/C
Assay: NCI In Vivo Anticancer Drug Screen. Data for tumor model L1210 Leukemia (intraperitoneal) in B6D2F1 (BDF1) mice
Settings: endpoint: mean survival time, higher = longer survival
Procedure, shortened: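 Transplanted-tumor mice were given test agent; controls received vehicle only. Survival readings from the two groups were divided (treated over control).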

Measured: T/C

O=C1C(=O)c2ccccc2C(O)=C1CC=C(Cl)Cl
inactive: dose: 6.2 mg/kg/injection, schedule: Q01DX009 (ip), vehicle: water 94 % of control | dose: 6.25 mg/kg/injection, schedule: Q01DX001 (ip), vehicle: saline 97 % of control | dose: 12.5 mg/kg/injection, schedule: Q01DX001 (ip), vehicle: saline 106 % of control | dose: 12.5 mg/kg/injection, schedule: Q01DX001 (oral), vehicle: saline 97 % of control | dose: 12.5 mg/kg/injection, schedule: Q01DX009 (ip), vehicle: water 100 % of control and 96 % of control | dose: 12.5 mg/kg/injection, schedule: Q03HX024 (ip), vehicle: water 89 % of control | dose: 12.5 mg/kg/injection, schedule: Q04DX003 (ip), vehicle: water 94 % of control | dose: 12.5 mg/kg/injection, schedule: Q08DX002 (ip), vehicle: water 98 % of control | dose: 25.0 mg/kg/injection, schedule: Q01DX001 (ip), vehicle: saline 104 % of control | dose: 25.0 mg/kg/injection, schedule: Q01DX001 (oral), vehicle: saline 104 % of control | dose: 25.0 mg/kg/injection, schedule: Q01DX009 (ip), vehicle: water 102 % of control and 96 % of control | dose: 25.0 mg/kg/injection, schedule: Q03HX016 (ip), vehicle: water 89 % of control | dose: 25.0 mg/kg/injection, schedule: Q03HX024 (ip), vehicle: water 90 % of control | dose: 25.0 mg/kg/injection, schedule: Q04DX003 (ip), vehicle: water 95 % of control | dose: 25.0 mg/kg/injection, schedule: Q08DX002 (ip), vehicle: water 95 % of control | dose: 25.0 mg/kg/injection, schedule: Q## X008 (ip), vehicle: water 91 % of control | dose: 50.0 mg/kg/injection, schedule: Q01DX001 (ip), vehicle: saline 106 % of control | dose: 50.0 mg/kg/injection, schedule: Q01DX001 (ip), vehicle: water 102 % of control | dose: 50.0 mg/kg/injection, schedule: Q01DX001 (oral), vehicle: saline 98 % of control | dose: 50.0 mg/kg/injection, schedule: Q01DX009 (ip), vehicle: water 113 % of control and 100 % of control | dose: 50.0 mg/kg/injection, schedule: Q03HX016 (ip), vehicle: water 91 % of control | dose: 50.0 mg/kg/injection, schedule: Q03HX024 (ip), vehicle: water 96 % of control | dose: 50.0 mg/kg/injection, schedule: Q04DX003 (ip), vehicle: water 97 % of control | dose: 50.0 mg/kg/injection, schedule: Q08DX002 (ip), vehicle: water 92 % of control | dose: 50.0 mg/kg/injection, schedule: Q## X008 (ip), vehicle: water 88 % of control | dose: 75.0 mg/kg/injection, schedule: Q03HX024 (ip), vehicle: water 90 % of control | dose: 75.0 mg/kg/injection, schedule: Q04DX003 (ip), vehicle: water 95 % of control | dose: 100.0 mg/kg/injection, schedule: Q01DX001 (oral), vehicle: saline 97 % of control and 106 % of control | dose: 100.0 mg/kg/injection, schedule: Q03HX016 (ip), vehicle: water 88 % of control | dose: 100.0 mg/kg/injection, schedule: Q03HX024 (ip), vehicle: water 92 % of control | dose: 100.0 mg/kg/injection, schedule: Q08DX002 (ip), vehicle: water 92 % of control | dose: 100.0 mg/kg/injection, schedule: Q## X008 (ip), vehicle: water 92 % of control | dose: 200.0 mg/kg/injection, schedule: Q03HX016 (ip), vehicle: water 90 % of control | dose: 200.0 mg/kg/injection, schedule: Q## X008 (ip), vehicle: water 94 % of control

CC(C)(C)CC(C)(C)c1ccc(OCCOCCOc2ccc([N+](=O)[O-])cc2)cc1
inactive: dose: 100.0 mg/kg/injection, schedule: Q01DX009 (ip), vehicle: saline sonified 94 % of control | dose: 200.0 mg/kg/injection, schedule: Q01DX009 (ip), vehicle: saline sonified 96 % of control | dose: 400.0 mg/kg/injection, schedule: Q01DX009 (ip), vehicle: saline sonified 94 % of control

COC1OCCCC1Br (stereo not drawn)
inactive: dose: 100.0 mg/kg/injection, schedule: Q01DX001 (ip), vehicle: saline 91 % of control | dose: 200.0 mg/kg/injection, schedule: Q01DX001 (ip), vehicle: saline 102 % of control | dose: 400.0 mg/kg/injection, schedule: Q01DX001 (ip), vehicle: saline 107 % of control

CCC(CC)(CO)CO
inactive: dose: 25.0 mg/kg/injection, schedule: Q01DX009 (ip), vehicle: saline 96 % of control | dose: 25.0 mg/kg/injection, schedule: Q04DX003 (ip), vehicle: saline 96 % of control | dose: 50.0 mg/kg/injection, schedule: Q01DX009 (ip), vehicle: saline 96 % of control | dose: 50.0 mg/kg/injection, schedule: Q04DX003 (ip), vehicle: saline 102 % of control | dose: 100.0 mg/kg/injection, schedule: Q01DX009 (ip), vehicle: saline 92 % of control | dose: 100.0 mg/kg/injection, schedule: Q04DX003 (ip), vehicle: Klucel (hydroxypropylcellulose) (HPC) 103 % of control | dose: 100.0 mg/kg/injection, schedule: Q04DX003 (ip), vehicle: saline 91 % of control | dose: 200.0 mg/kg/injection, schedule: Q01DX009 (ip), vehicle: saline 96 % of control | dose: 200.0 mg/kg/injection, schedule: Q04DX003 (ip), vehicle: Klucel (hydroxypropylcellulose) (HPC) 94 % of control | dose: 200.0 mg/kg/injection, schedule: Q04DX003 (ip), vehicle: saline 91 % of control | dose: 400.0 mg/kg/injection, schedule: Q01DX009 (ip), vehicle: saline 96 % of control | dose: 400.0 mg/kg/injection, schedule: Q04DX003 (ip), vehicle: Klucel (hydroxypropylcellulose) (HPC) 97 % of control | dose: 400.0 mg/kg/injection, schedule: Q04DX003 (ip), vehicle: saline 107 % of control

From PubChem BioAssay AID248 (DTP/NCI, 2004)
